The values below come from patent publication US10264789B2, “Rodentia animal repellent” (SUMITOMO CHEMICAL COMPANY, LIMITED, priority 2014, dated 2019).

For the experiment, the system named is female mouse (Jcl: ICR lineage). As to the kind of experiment: Repellent test (Experimental Example 1, two-section feed choice apparatus). It is filed as in vivo. The settings on record: drug amount 0.5 g on one sheet of filter paper. As to the method: Experimental Example 1 (Test Animal: Mouse)
The repellent test was performed using the repellent test apparatus described in FIG. 1. The apparatus has a residential section for the test animal in the center part, test section 1 and test section 2 setting food on both ends, test section 1 and the residential section are connected by a cylindrical path (diameter 0.05 m, length 2.08 m), and test section 2 and the residential section are also connected by a cylindrical path. The test section 1 and test section 2 are resin cuboid shape (0.68 m×0.40 m×0.32 m) containers, and the connection parts with the paths are opened. The residential section is also a resin cuboid shape (0.28 m×0.45 m×0.16 m), and the upper part made of an iron net so that the air can be taken in. An openable door is set in the connection part between the residential section and the path. Chips for floor:clean chip SP (manufactured by CLEA Japan, Inc.) were spread all over the bottom part of the residential section.
An acclimation operation was performed before the repellent test to make the test animal experienced with the test apparatus.
A weighed feed (solid food CE-2 for breeding and raising, manufactured by CLEA Japan, Inc.) (initial feed weight about 10 g) was set in each of test section 1 and test section 2, one female mouse (Jcl: ICR lineage) was placed in the residential section. One day later, the feed remaining in both test sections was weighed, and the eating rate was calculated by the following formula. When the eating rates of the both test sections are considerably different, the feed was changed to a new one, and the acclimation operation was repeated for several days until the eating rate was stabilized, and the eating rates of the both test sections became almost equivalent. eating rate (%)=100×amount eaten (g)/initial feed weight (g) <Repellent Test>
After completion of the acclimation operation, the same feed (solid food CE-2 for breeding and raising, manufactured by CLEA Japan, Inc.) (about 10 g) was placed in the both test sections. […] After 1 hr from setting the filter paper, the door of the connection part between the residential section and the path was closed, and thereafter the door was opened. After lapse of one day from the start of the test, the feed remaining in the both test sections was weighed. When the test was continued for not less than one day, the feed in the both test sections was exchanged every other day, and the remaining feed was weighed every day.
The repellent rate was calculated by the following formula. The test section where the filter paper (diameter 70 mm, manufactured by Advantec Toyo Kaisha, Ltd.) treated with the test compound was set was taken as the treatment section, and the test section where the filter paper was not set was taken as the non-treatment section. repellent rate (%)=100×(amount eaten in non-treatment section−amount eaten in treatment section)/(amount eaten in non-treatment section+amount eaten in treatment section)

Take `c1ccc2scnc2c1` [Comparison compound C, reference compound]: the “repellent rate (%)” value (number of observation days 1) amounted to 4%. Regarding `Sc1nc2ccccc2s1` [comparison compound A, reference compound], for the setting “number of observation days 1”, the “repellent rate (%)” value came to 0%. Still for that read-out and setting: as for `c1ccc(-c2nc3ccccc3s2)cc1` [comparison compound B, reference compound], the figure is 0%; as for `CC(C)Cc1nc2ccccc2s1` [present compound 5, 2-isobutyl-1,3-benzothiazole], 94%.

For the compound `FC(F)(F)c1nc2ccccc2s1` [present compound 6, 2-trifluoromethyl-1,3-benzothiazole], where the note is “number of observation days 1”, the “repellent rate (%)” value is 100%. As to `Cc1nc2c(C)cccc2s1` [present compound 13, 2,4-dimethyl-1,3-benzothiazole], the “repellent rate (%)” value (number of observation days 1) worked out at 100% and the “repellent rate (%)” value (number of observation days 3) was 100%.

With `CC1(C)Nc2ccccc2S1` [present compound 14, 2,2-dimethyl-2,3-dihydro-1,3-benzothiazole], the “repellent rate (%)” value (number of observation days 1) is 100% and the “repellent rate (%)” value (number of observation days 3) was found to be 92%.
